Laboratory results published in publication PMC9542285, “Novel amides of mycophenolic acid and some heterocyclic derivatives as immunosuppressive agents” (Journal of Enzyme Inhibition and Medicinal Chemistry, 2022).
Like-named read-outs stand apart in the source and are kept apart here.

Assays:
PBMCs [1] = experiment: In vitro cytotoxicity assay with XTT dye, PBMCs; format: cell-based, human; conditions: Homo sapiens, PBMC, 72 h incubation then 24 h XTT, read-out: IC50 PBMCs (XTT test)
Protocol: (§1) Figure 2. Representative dose-response curve to determine the IC50 of MPA and A2. […] Next, plates were incubated for 24 h with XTT reagent. The conversion of water-soluble yellow tetrazolium XTT salt into orange formazan was monitored by measuring the optical density at 450 nm on microplate spectrophotometer. For XTT assay at least three experiments were performed and values are presented as mean ± SD.
(§2) The cytotoxic effect of derivatives of MPA was measured using in vitro 2,3-bis(2-methoxy-4-nitro-5-sulfophenyl)-2H-tetrazolium-5-carboxanilide (XTT)-based assay (Roche, Basel, Swiss). PBMCs suspended in complete X–VIVO20 medium and T-Jurkat cells suspended in complete RPMI-1640 medium were added on a 96-well plate at a concentration of 5 × 10^5 cells/50 µL/well. […] As a background control we used medium without cells, as a positive control we used cells untreated with compounds. After 48 h for T-Jurkat cells and 72 h for PBMCs of incubation in a humidified atmosphere with 5% CO2 at 37 °C, 50 µL of XTT reagent (freshly prepared according to the manufacturer’s procedure) was added to all samples. Plates were incubated for 24 h (5% CO2 at 37 °C). The conversion of water-soluble yellow tetrazolium XTT salt into orange formazan was monitored by measuring the optical density (OD) at 450 nm on Agilent BioTek Epoch Microplate Spectrophotometer (Agilent Technologies, Santa Clara, CA), with a background wavelength at 690 nm. […] Each sample was performed in triplicates.

T-Jurkat cell line = experiment: In vitro cytotoxicity assay with XTT dye, T-Jurkat; format: cell-based, human; conditions: Homo sapiens, 48 h incubation then 24 h XTT, read-out: IC50 T-Jurkat (XTT test)
Protocol: as §1, §2

T-Jurkat cells = experiment: Dye-based proliferation assay VPD450 (flow cytometry), T-Jurkat; format: cell-based, human; conditions: Homo sapiens, 48 h
Protocol: Figure 4. […] Cell proliferation was analysed using flow cytometry.

PBMCs [2] = experiment: VPD450 proliferation of PBMCs with or without GMP (IMPDH mechanism test); format: cell-based, human; conditions: PBMCs, 72 h
Protocol: According to reported experiment, suppression of cell proliferation caused by IMPDH inhibitors in the presence of guanosine source, e.g. gunosine monophosphate (GMP) is reversible.
Figure 5. […] Cell proliferation was analysed using flow cytometry.
Cells proliferation was analyzed using flow cytometry.
(1 picture or pasted object on this page, not shown here)

PBMCs [3] = conditions: read-out: EC50 PBMCs (VPD450 proliferation); PBMCs stimulated with anti-CD3/anti-CD28 beads, 72 h
Protocol: (§3) Cell proliferation was analysed using flow cytometry. The results are expressed as the mean ± SD.
(§4) PBMCs and T-Jurkat cells were washed twice with warm PBS (37 °C), suspended in fresh PBS at a final concentration of 10–30 × 10^6 cells/mL and labelled with 1 µL of VPD450 (BD Biosciences, Franklin Lakes, NJ) at 37 °C for 15 min. Each 5 min cells were vortexed to provide uniform staining[42]^,[43]. Subsequently, cells were washed with PBS and then with complete medium (X-VIVO20 for PBMCs and RPMI-1640 for T-Jurkat cells). After this step, cells were suspended in fresh complete medium, seeded on 96-well plates (1 × 10^6 cells/well). PBMCs were additionally stimulated with magnetic beads coated with anti-CD3 and anti-CD28 antibodies (Invitrogen, Carlsbad, CA) in 1:0.5 cell:bead ratio. Of 100 µL of examined derivatives of MPA were added to experimental wells to receive final concentrations: 100; 10; 1; 0.1; 0.01 µM. In parallel, stained and not stimulated cells, as well as stained and stimulated cells, were seeded in the same concentration as controls. After 48 h for T-Jurkat and 72 h for PBMCs, cells were analysed with flow cytometer LSRFortessa (BD Biosciences, Franklin Lakes, NJ) and Kaluza C Flow Cytometry Analysis Software (Beckman Coulter, Brea, CA). […] Cell viability was determined at the highest concentration of the tested compound. For this purpose, TC20 cell counter (Biorad) was used with trypan blue exclusion.

PBMCs [4] = experiment: cells; conditions: Homo sapiens, PBMC, 72 h, read-out: EC50 PBMCs (VPD450 proliferation), PBMCs stimulated with anti-CD3/anti-CD28 beads, 72 h
Protocol: as §3, §4

## COc1c(C)c2c(c(O)c1C/C=C(\C)CCC(=O)Nc1nc3ccccc3o1)C(=O)OC2 [A2, N-(benzo[d]oxazol-2-yl) mycophenolate]
PBMCs [1]
  IC50: 15.923 ± 0.009 µM
T-Jurkat cell line
  IC50: 1.326 ± 0.002 µM
T-Jurkat cells
  EC50: 0.85 ± 0.004 µM
PBMCs [2]; 50 µM GMP, MPA at 100, 10 and 1 µM, A2 at 100 and 10 µM
  Effect of GMP addition on proliferation: proliferation increases after the addition of GMP
PBMCs [2]; with or without 50 µM GMP
  Mechanism of action (IMPDH inhibition, GMP reversal): consistent with that of MPA
other
  melting point: 175 to 177 °C
PBMCs [3]
  EC50: 5.601 ± 0.022 µM
PBMCs [4]
  EC50: 5.6 µM
